Read-outs that look alike come from different tables or passages of the source.
Tests used:
[1] = system: Erysiphe graminis f. sp. tritici; experiment: Example D wheat powdery mildew; type: in vivo; details: Blumeria graminis, 144 h; 100 PPM; read-out: disease control rating, Ex. D
Procedure, shortened: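 First, compound taken up in acetone, 6% of the end volume. Next, suspended in water with 250 ppm polyhydric alcohol esters at 100 or 20 ppm. Last, applied to wheat seedlings until run-off.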

[2] = system: Candida albicans ATCC 11651; experiment: In vivo systemic Candida infection in mice, primary assay; set-up: species or system Candida albicans; CF-1 female mice; details: Candida albicans, 150 mg/kg per day, read-out: % Survival
Procedure, shortened: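 CF-1 female mice (20 g, 10 per group) were infected IV with 0.2 ml of 1×10^7/ml C. albicans ATCC 11651, then given test compound subcutaneously at 50 or 150 mg/kg/day at 1 and 6 h post-infection and once daily for three more days. Survival was followed for 21 days against infected untreated mice; ≥70% protection at 14 days was scored active.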

[3] = system: Cercosporidium personatum; experiment: Example B Peanut Late Leafspot; type: in vivo; details: Nothopassalora personata; 100 PPM; read-out: disease control rating, Ex. B
Procedure, shortened: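 Dose 100 or 20 ppm; vehicle acetone 6% v/v final in water + 250 ppm surfactant; applied by spraying peanut seedlings to run-off.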

Plasmorpara viticola = experiment: Example I grape downy mildew; type: in vivo; details: read-out: disease control rating, Ex. I
Procedure, shortened: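 Compounds were dissolved in acetone (6% of final volume) and suspended at 100 or 20 ppm in purified water with 250 ppm TREM 014 surfactant (polyhydric alcohol esters). Grape seedlings were sprayed with this suspension to run-off.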

Phytophthora infestans = experiment: whole plant or invertebrate; type: in vivo; details: Phytophthora infestans, in Solanum lycopersicum, read-out: disease control rating, Ex. H, 100 PPM
Sclerotium rolfsii = experiment: Example M southern blight; type: in vivo; details: Agroathelia rolfsii, 336 h; 5 kg/ha; read-out: disease control rating, Ex. M
Procedure: […] Seeds and soil were then inoculated with a mixture of sand, cereal and mycelium of the fungus Sclerotium rolfsii, causal agent of sourthern blight, and incubated in a growth chamber at 30° C. for 14 days. Disease ratings were then made.

Pythium aphanadermatum = experiment: Example J cucumber damping off; type: in vivo; set-up: key to phytotoxicity entry, Ex. J: P: disease control was not measured due to phytoxicity; details: 5 kg/ha; for pest or weed control at 5000 g/ha: Pythium, 336 h, read-out: disease control rating, Ex. J
Procedure, shortened: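 Seeds and soil were inoculated with a mix of sand, cereal and Pythium aphanadermatum mycelium, the fungus responsible for cucumber damping off. They were kept in a growth chamber at 30° C. for 14 days, and disease was then rated to assess control.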

WATER PLAINTAIN = experiment: Test C rice paddy; type: in vivo, Alisma trivale; details: 504 h, 21 days, read-out: plant response; for pest or weed control at 64 g/ha: 0064 G/HA; for pest or weed control at 125 g/ha: 0125 G/HA; for pest or weed control at 250 g/ha: 0250 G/HA; for pest or weed control at 500 g/ha: 0500 G/HA
From the text: (§1) Sixteen cm diameter Airlite plastic pots were partially filled with Tama slit loam soil and the soil saturated with water. Japonica and Indica rice seedlings a the 2.0 to 2.5 leaf stage were transplanted into 1/3 of the pots. Into another third of the pots were transplanted seedling or sprouted tubers of water plantain (Alisma trivale), Scripus (Scirpus paludosus), Cyperus (Cyperus esculentus), and arrowhead (Sagittaria spp.). The remaining pots were planted with barnyardgrass (Echinochloa crusgalli) seeds and sprouted tubes of water chestnut (Eleocharis spp.). These weeds all represent major rice weeds or genera of weeds important in rice. Three to four days after planting, the water level was raised to 3 cm (about 1200 ml/pot) and maintained a this level throughout the test. Chemical treatments were applied directly to the paddy water, within 24 hours of raising the water, after being formulated in a nonphytotoxic solvent. The pots were maintained in the greenhouse.

RICE JAP EFF = experiment: Test C rice paddy; type: in vivo, Japonica rice; details: Oryza sativa, 504 h, 21 days, read-out: plant response; for pest or weed control at 64 g/ha: 0064 G/HA; for pest or weed control at 125 g/ha: 0125 G/HA; for pest or weed control at 250 g/ha: 0250 G/HA; for pest or weed control at 500 g/ha: 0500 G/HA
From the text: as §1

YELLOW NUTSEDGE = experiment: Test C rice paddy; type: in vivo, Cyperus esculentus; details: 21 days
From the text: as §1

SCIRPUS = experiment: Test C rice paddy; type: in vivo, Scirpus paludosus; details: Bolboschoenus maritimus, 504 h, 21 days, read-out: plant response; for pest or weed control at 64 g/ha: 0064 G/HA; for pest or weed control at 125 g/ha: 0125 G/HA; for pest or weed control at 250 g/ha: 0250 G/HA; for pest or weed control at 500 g/ha: 0500 G/HA
From the text: as §1

Rhizoctonia solani = experiment: Example K cotton blight; type: in vivo; details: 336 h, 5 kg/ha, read-out: disease control rating, Ex. K
Procedure: […] Seeds and soil were then inoculated with a mixture of sand, cereal and mycelium of the fungus Rhizoctonia solani, causal agent of cotton blight, and incubated in a growth chamber at 30° C. for 14 days. Disease ratings were then made.

RICE INDICA EFF = experiment: Test C rice paddy; type: in vivo; details: Oryza sativa, 504 h, 21 days, read-out: plant response; for pest or weed control at 64 g/ha: 0064 G/HA; for pest or weed control at 125 g/ha: 0125 G/HA; for pest or weed control at 250 g/ha: 0250 G/HA; for pest or weed control at 500 g/ha: 0500 G/HA
From the text: as §1

SMILES	pest or weed control at 100 ppm [1]	responders at 150 mg/kg ([2]; ATCC11651, 168 h, day 7)	responders at 150 mg/kg ([2]; ATCC11651, 336 h, day 14)	responders at 150 mg/kg ([2]; ATCC11651, 504 h, day 21)	pest or weed control at 100 ppm [3]	pest or weed control at 100 ppm (Plasmorpara viticola)	pest or weed control at 100 ppm (Phytophthora infestans)	pest or weed control at 5000 g/ha (Sclerotium rolfsii)	pest or weed control at 5000 g/ha (Pythium aphanadermatum)	pest or weed control at 64 g/ha (WATER PLAINTAIN)	pest or weed control at 125 g/ha (WATER PLAINTAIN)	pest or weed control at 250 g/ha (WATER PLAINTAIN)	pest or weed control at 500 g/ha (WATER PLAINTAIN)	pest or weed control at 1000 g/ha (WATER PLAINTAIN)	pest or weed control at 64 g/ha (RICE JAP EFF)	pest or weed control at 125 g/ha (RICE JAP EFF)	pest or weed control at 250 g/ha (RICE JAP EFF)	pest or weed control at 500 g/ha (RICE JAP EFF)	pest or weed control at 1000 g/ha (RICE JAP EFF)	plant response (YELLOW NUTSEDGE; 0064 G/HA)	other results
C=C(c1ccccc1)C(O)(Cn1cncn1)c1ccc(F)cc1F (centres unmarked) [Example 52, 2-(2,4-Difluorophenyl)-3-phenyl-1-(1H-1,2,4-triazol-1-yl)-3-buten-2-ol]	94%	100%	100%	90%	100%	0%	0%	0%	0%	–	–	–	–	–	–	–	–	–	–	–	–
C=C(c1ccc(F)cc1)C(O)(Cn1ncnc1I)c1ccc(F)cc1F (centres unmarked) [Example 1381]	98%	–	–	–	100%	78%	0%	0%	0%	0%	0%	0%	0%	0%	0%	0%	20%	40%	60%	0	plant response (YELLOW NUTSEDGE; 0125 G/HA): 0; plant response (YELLOW NUTSEDGE; 0250 G/HA): 0; plant response (YELLOW NUTSEDGE; 0500 G/HA): 40; plant response (YELLOW NUTSEDGE; 1000 G/HA): 50; pest or weed control at 64 g/ha (SCIRPUS): 0%; pest or weed control at 125 g/ha (SCIRPUS): 0%; pest or weed control at 250 g/ha (SCIRPUS): 0%; pest or weed control at 500 g/ha (SCIRPUS): 0%; pest or weed control at 1000 g/ha (SCIRPUS): 30%; pest or weed control at 5000 g/ha (Rhizoctonia solani): 50%; pest or weed control at 64 g/ha (RICE INDICA EFF): 0%; pest or weed control at 125 g/ha (RICE INDICA EFF): 0%; pest or weed control at 250 g/ha (RICE INDICA EFF): 20%; pest or weed control at 500 g/ha (RICE INDICA EFF): 40%; pest or weed control at 1000 g/ha (RICE INDICA EFF): 60%
C=C(c1ccc(Cl)cc1Cl)C(O)(Cn1cncn1)c1ccccc1F (centres unmarked) [Example 107]	–	–	–	–	–	–	–	–	–	0%	0%	0%	60%	80%	0%	0%	30%	40%	50%	0	plant response (YELLOW NUTSEDGE; 0125 G/HA): 0; plant response (YELLOW NUTSEDGE; 0250 G/HA): 50; plant response (YELLOW NUTSEDGE; 0500 G/HA): 30; plant response (YELLOW NUTSEDGE; 1000 G/HA): 95; pest or weed control at 64 g/ha (SCIRPUS): 0%; pest or weed control at 125 g/ha (SCIRPUS): 0%; pest or weed control at 250 g/ha (SCIRPUS): 60%; pest or weed control at 500 g/ha (SCIRPUS): 80%; pest or weed control at 1000 g/ha (SCIRPUS): 80%; pest or weed control at 64 g/ha (RICE INDICA EFF): 0%; pest or weed control at 125 g/ha (RICE INDICA EFF): 0%; pest or weed control at 250 g/ha (RICE INDICA EFF): 30%; pest or weed control at 500 g/ha (RICE INDICA EFF): 40%; pest or weed control at 1000 g/ha (RICE INDICA EFF): 50%
C=C(c1ccc(F)cc1)C(O)(Cn1cncn1)c1ccc(F)cc1F (centres unmarked) [Example 4, 2-(2,4-Difluorophenyl)-3-(4-fluorophenyl)-1-(1H-1,2,4-triazol-1-yl)-3-buten-2-ol]	100%	100%	50%	–	100%	81%	0%	0%	0%	–	–	–	–	–	–	–	–	–	–	–	pest or weed control at 5000 g/ha (Rhizoctonia solani): 0%
C=C(c1ccccc1)C(O)(Cn1cncn1)c1ccc(Cl)cc1Cl (centres unmarked) [Example 50, 2-(2,4-Dichlorophenyl)-3-phenyl-1-(1H-1,2,4-triazol-1-yl)-3-buten-2-ol]	95%	100%	90%	50%	100%	46%	0%	–	0%	0%	0%	0%	0%	0%	0%	0%	30%	60%	70%	0	plant response (YELLOW NUTSEDGE; 0125 G/HA): 0; plant response (YELLOW NUTSEDGE; 0250 G/HA): 0; plant response (YELLOW NUTSEDGE; 0500 G/HA): 30; plant response (YELLOW NUTSEDGE; 1000 G/HA): 50; pest or weed control at 64 g/ha (SCIRPUS): 0%; pest or weed control at 125 g/ha (SCIRPUS): 0%; pest or weed control at 250 g/ha (SCIRPUS): 0%; pest or weed control at 500 g/ha (SCIRPUS): 0%; pest or weed control at 1000 g/ha (SCIRPUS): 0%; pest or weed control at 64 g/ha (RICE INDICA EFF): 0%; pest or weed control at 125 g/ha (RICE INDICA EFF): 40%; pest or weed control at 250 g/ha (RICE INDICA EFF): 30%; pest or weed control at 500 g/ha (RICE INDICA EFF): 70%; pest or weed control at 1000 g/ha (RICE INDICA EFF): 80%
C=C(c1ccccc1)C(O)(Cn1cncn1)c1ccc(Cl)cc1 (centres unmarked) [Example 51, 2-(4-Chlorophenyl)-3-phenyl-1-(1H-1,2,4-triazol-1-yl)-3-buten-2-ol]	100%	100%	100%	80%	100%	0%	0%	–	–	–	–	–	–	–	–	–	–	–	–	–	phytotoxicity entry, Ex. J (Pythium aphanadermatum): P
C=C(c1ccc(F)cc1)C(O)(Cn1cncn1)c1ccccc1F (centres unmarked) [Example 644]	100%	80%	70%	50%	100%	0%	23%	–	0%	–	–	–	–	–	–	–	–	–	–	–	pest or weed control at 5000 g/ha (Rhizoctonia solani): 0%
